Experimental data as given in US20240246950A1, “Anilino-Pyrazole Derivatives, Compositions and Methods Thereof” (Ensem Therapeutics, priority 2022, published 2024).
Like-named read-outs stand apart in the source and are kept apart here.

Assays:
CDK1/cyclinB = CDK1/cyclinB (Homo sapiens, UniProt P06493); assay: In vitro kinase TR-FRET assay CDK1/cyclinB; format: biochemical; conditions: enzyme 0.3 nM, ATP 56 μM
Description: (§1) In vitro kinase TR-FRET assays: CDK2/CycA2, CDK2/CycE1, CDK1/cyclinB and GSK3β
(§2) The test compounds were prepared as 10 mM stock solution in 100% DMSO. The stock solution was then serially diluted 3-fold in 100% DMSO to 10 concentrations. 200 nL of each diluted compound solution was transferred to 384-well plate in duplicate. To each well, 5 uL of enzyme and ATP mixture solution containing enzyme CDK2/CycA2, CDK2/CycE1, CDK1/cyclinB, or GSK30 (final concentrations 3 nM, 0.6 nM, 0.3 nM, 0.6 nM, respectively) and ATP (final concentrations 27 μM, 82 μM, 56 μM, 7.6 μM, respectively) in the assay buffer (50 mM HEPES, pH7.5, 10 mM MgCl2, 1 mM DTT, 0.01% BSA, 0.01% Triton X-100). For negative control, 5 uL of assay buffer was added instead. The plate was incubated at room temperature for 10 min. 5 uL of peptide solution containing ULight-4E-BP1 peptide (final concentrations 50 nM) in the assay buffer was subsequently added into each well to initiate the reaction. By incubation at room temperature for 1 hour, 10 uL of 2 nM Eu-anti-phospho-4E BP1 antibody was then added for detection. After one hour incubation at room temperature, all samples were subjected to read the TR-FRET signal on Envision with excitation at 340 nm and emission fluorescence at 615 nm and 665 nm. IC50 values were then calculated by plotting dose-response curves and then using the XLfit application in Excel software.

CDK2/CycE1 = CDK2/CycE1 (Homo sapiens, UniProt P24941); assay: In vitro kinase TR-FRET assay CDK2/CycE1; format: biochemical; conditions: enzyme 0.6 nM, ATP 82 μM, read-out: CDK2 cyclinE1 activity assay: IC50
Description: as §1, §2

CDK2/CycA2 = CDK2/CycA2 (Homo sapiens, UniProt P24941); assay: In vitro kinase TR-FRET assay CDK2/CycA2; format: biochemical; conditions: enzyme 3 nM, ATP 27 μM, read-out: CDK2 cyclinA2 activity assay: IC50
Description: as §1, §2

OVCAR3 = assay: Cell proliferation (CyQUANT) OVCAR3; format: cell-based; conditions: OVCAR3, 7 days, read-out: Anti-proliferation assay: IC50 (nM) [Cell Line: OVCAR3]
Description: (§3) Cancer cell lines, namely, OVCAR3, TOV21G were seeded onto 96 well cell culture plates at a density of 2500, 1000 or 3000 cells/well, respectively and cultured overnight. Cells treated with test compounds at 3-fold dose titration for 7 days at maximum final DMSO concentration of 0.01%. The CyQUANT® Cell Proliferation Assay, a highly sensitive fluorescence-based method for quantifying cells and assessing cell proliferation and cytotoxicity was employed, following manufacturer's procedure (ThermnoFisher, Cataloge #C35012). Plates were scanned with a laser-based Acumen Cellistra instrument by TTP LabTech at Ex/Em 480/520 nm. % Inhibition is calculated based on DMSO control wells on the same plate (ie, DMSO wells have 100% growth and 0% growth inhibition).

TOV21G = assay: Cell proliferation (CyQUANT) TOV21G; format: cell-based; conditions: 7 days, read-out: Anti-proliferation assay: IC50 (nM) [Cell Line: TOV21G]
Description: as §3

GSK3β = GSK3β (Homo sapiens, UniProt P49841); assay: In vitro kinase TR-FRET assay GSK3β; format: biochemical; conditions: enzyme 0.6 nM, ATP 7.6 μM
Description: as §1, §2

Sequence of CDK1/cyclinB (P06493 whole entry): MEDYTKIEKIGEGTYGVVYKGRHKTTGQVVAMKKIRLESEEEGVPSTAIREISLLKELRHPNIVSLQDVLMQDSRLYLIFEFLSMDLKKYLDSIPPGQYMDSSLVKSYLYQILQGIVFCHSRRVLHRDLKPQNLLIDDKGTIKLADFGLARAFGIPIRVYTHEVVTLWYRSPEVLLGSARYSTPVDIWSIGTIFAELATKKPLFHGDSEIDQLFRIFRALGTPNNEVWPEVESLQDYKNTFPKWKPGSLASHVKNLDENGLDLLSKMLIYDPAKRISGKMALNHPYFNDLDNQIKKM
Sequence of CDK1/cyclinB (P14635 whole entry partner): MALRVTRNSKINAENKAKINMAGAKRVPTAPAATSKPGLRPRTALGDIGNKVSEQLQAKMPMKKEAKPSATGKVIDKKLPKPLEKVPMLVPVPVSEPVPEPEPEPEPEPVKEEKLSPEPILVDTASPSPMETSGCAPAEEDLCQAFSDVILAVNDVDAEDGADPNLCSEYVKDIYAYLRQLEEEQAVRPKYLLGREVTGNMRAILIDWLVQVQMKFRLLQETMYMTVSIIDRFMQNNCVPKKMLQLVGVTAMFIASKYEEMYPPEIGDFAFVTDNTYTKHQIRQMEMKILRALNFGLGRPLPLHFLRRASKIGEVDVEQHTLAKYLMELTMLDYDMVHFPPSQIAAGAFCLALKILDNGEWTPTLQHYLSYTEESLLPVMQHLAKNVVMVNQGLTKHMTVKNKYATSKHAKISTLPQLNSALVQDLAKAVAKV
Sequence of GSK3β (P49841 whole entry, species assumed): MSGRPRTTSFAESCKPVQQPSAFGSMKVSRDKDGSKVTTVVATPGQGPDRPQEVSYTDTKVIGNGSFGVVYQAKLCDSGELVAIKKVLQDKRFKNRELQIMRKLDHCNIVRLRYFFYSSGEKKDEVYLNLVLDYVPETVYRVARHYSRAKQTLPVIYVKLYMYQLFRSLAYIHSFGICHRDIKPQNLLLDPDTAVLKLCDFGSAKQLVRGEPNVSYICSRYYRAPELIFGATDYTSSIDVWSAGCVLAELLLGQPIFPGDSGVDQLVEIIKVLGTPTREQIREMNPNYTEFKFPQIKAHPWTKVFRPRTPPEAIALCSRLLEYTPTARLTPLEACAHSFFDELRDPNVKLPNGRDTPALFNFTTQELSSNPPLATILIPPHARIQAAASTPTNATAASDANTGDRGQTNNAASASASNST

IC50 (CDK1/cyclinB)	IC50 (CDK2/CycE1)	IC50 (CDK2/CycA2)	IC50 (OVCAR3; Homo sapiens, OVCAR-3, 168 h)	IC50 (GSK3β)	IC50 (OVCAR3)	Compound	IC50 (TOV21G; Homo sapiens, 168 h)	IC50 (TOV21G)
50 to 500 nM	< 50 nM	< 50 nM	≤ 500 nM	50 to 500 nM		CC(C)NC(=O)O[C@@H]1CC[C@H](c2cc(Nc3ccc4c(c3)OCCNS4(=O)=O)n[nH]2)C1 [Example 6, (1R,3S)-3-(3-((1,1-dioxido-3,4-dihydro-2H-benzo[b][1,4,5]oxathiazepin-7-yl)amino)-1H-pyrazol-5-yl)cyclopentyl isopropylcarbamate]	≥ 1000 nM	
50 to 500 nM	< 50 nM	< 50 nM		> 1000 nM	≤ 500 nM	CC(C)NC(=O)O[C@H]1CC[C@@H](c2cc(Nc3ccc4c(c3)CNS4(=O)=O)n[nH]2)CC1 [Example 7, (1s,4s)-4-{3-[(1,1-dioxo-2,3-dihydro-1λ^6,2-benzothiazol-5-yl)amino]-1H-pyrazol-5-yl}cyclohexyl N-(propan-2-yl)carbamate]		≥ 1000 nM
500 to 1000 nM	< 50 nM	< 50 nM	≥ 1000 nM	500 to 1000 nM		CC(C)NC(=O)O[C@@H]1CC[C@H](c2cc(Nc3ccc4c(c3)CNC4=O)n[nH]2)C1 [Example 8, (1R,3S)-3-(3-((1-oxoisoindolin-5-yl)amino)-1H-pyrazol-5-yl)cyclopentyl isopropylcarbamate]	≥ 1000 nM	
50 to 500 nM	< 50 nM	< 50 nM	≤ 500 nM	50 to 500 nM		CC(C)NC(=O)O[C@@H]1CC[C@H](c2cc(Nc3ccc4c(c3)CCS4(=O)=O)n[nH]2)C1 [Example 9, (1R,3S)-3-(3-((1,1-dioxido-2,3-dihydrobenzo[b]thiophen-5-yl)amino)-1H-pyrazol-5-yl)cyclopentyl isopropylcarbamate]	≥ 1000 nM	
< 50 nM	< 50 nM	< 50 nM	≤ 500 nM	50 to 500 nM		CC(C)NC(=O)O[C@@H]1CC[C@H](c2cc(Nc3ccc4c(c3)C(C)NS4(=O)=O)[nH]n2)C1 (stereo partly drawn) [Example 10, (1R,3S)-3-(5-((3-methyl-1,1-dioxido-2,3-dihydrobenzo[d]isothiazol-5-yl)amino)-1H-pyrazol-3-yl)cyclopentyl isopropylcarbamate]	≥ 1000 nM	
< 50 nM	< 50 nM	< 50 nM	≤ 500 nM	> 1000 nM		CC(C)NC(=O)O[C@H]1CC[C@@H](c2cc(Nc3ccc4c(c3)CCNS4(=O)=O)n[nH]2)CC1 [Example 11, (1s,4s)-4-{3-[(1,1-dioxo-3,4-dihydro-2H-1λ^6,2-benzothiazin-6-yl)amino]-1H-pyrazol-5-yl}cyclohexyl N-(propan-2-yl)carbamate]	≥ 1000 nM	
< 50 nM	< 50 nM	< 50 nM		50 to 500 nM	≤ 500 nM	CC(C)NC(=O)O[C@@H]1CC[C@H](c2cc(Nc3ccc4c(c3)N(C)CNS4(=O)=O)n[nH]2)C1 [Example 12, (1R,3S)-3-{3-[(4-methyl-1,1-dioxo-3,4-dihydro-2H-1λ^6,2,4-benzothiadiazin-6-yl)amino]-1H-pyrazol-5-yl}cyclopentyl N-(propan-2-yl)carbamate]		≥ 1000 nM
50 to 500 nM	< 50 nM	< 50 nM	≤ 500 nM	50 to 500 nM		COC1CS(=O)(=O)c2ccc(Nc3cc([C@H]4CC[C@@H](OC(=O)NC(C)C)C4)n[nH]3)cc21 (stereo partly drawn) [Example 15, (1R,3S)-3-{5-[(3-methoxy-1,1-dioxo-2,3-dihydro-1λ^6-benzothiophen-5-yl)amino]-2H-pyrazol-3-yl}cyclopentyl (prop-2-ylamino)methanoate]	≥ 1000 nM	
< 50 nM	< 50 nM	< 50 nM	≤ 500 nM	50 to 500 nM		CC(C)NC(=O)O[C@@H]1CC[C@H](c2cc(Nc3ccc4c(c3)S(=O)(=O)NC4)n[nH]2)C1 [Example 17, (1R,3S)-3-(3-((1,1-dioxido-2,3-dihydrobenzo[d]isothiazol-6-yl)amino)-1H-pyrazol-5-yl)cyclopentyl isopropylcarbamate]	≤ 500 nM	
50 to 500 nM	< 50 nM	< 50 nM	≤ 500 nM	50 to 500 nM		CC(C)NC(=O)O[C@@H]1CC[C@H](c2cc(Nc3ccc4c(c3)S(=O)(=O)CC4)n[nH]2)C1 [Example 19, (1R,3S)-3-(3-((1,1-dioxido-2,3-dihydrobenzo[b]thiophen-6-yl)amino)-1H-pyrazol-5-yl)cyclopentyl isopropylcarbamate]	≤ 500 nM	
50 to 500 nM	< 50 nM	< 50 nM	500 to 1000 nM	50 to 500 nM		CC(C)NC(=O)O[C@@H]1CC[C@H](c2cc(Nc3ccc4c(c3)C(C)(C)CS4(=O)=O)n[nH]2)C1 [Example 21, (1R,3S)-3-{5-[(3,3-dimethyl-1,1-dioxo-2,3-dihydro-1λ^6-benzothiophen-5-yl)amino]-2H-pyrazol-3-yl}cyclopentyl (prop-2-ylamino)methanoate]	≥ 1000 nM	
< 50 nM	< 50 nM	< 50 nM	≤ 500 nM	500 to 1000 nM		CC(C)NC(=O)O[C@@H]1CC[C@H](c2cc(Nc3ccc4c(c3)CS(=O)(=O)C4)n[nH]2)C1 [Example 22, (1R,3S)-3-(3-((2,2-dioxido-1,3-dihydrobenzo[c]thiophen-5-yl)amino)-1H-pyrazol-5-yl)cyclopentyl isopropylcarbamate]	≤ 500 nM	

Compound	IC50 (CDK1/cyclinB)	IC50 (CDK2/CycE1)	IC50 (CDK2/CycA2)	IC50 (OVCAR3; Homo sapiens, OVCAR-3, 168 h)	IC50 (GSK3β)	IC50 (OVCAR3)	IC50 (TOV21G; Homo sapiens, 168 h)	IC50 (TOV21G)
CC(C)NC(=O)O[C@@H]1CC[C@H](c2cc(Nc3ccc4c(c3)CCC4=O)n[nH]2)C1 [Example 25, (1R,3S)-3-{5-[(1-oxo-2,3-dihydro-1H-inden-5-yl)amino]-2H-pyrazol-3-yl}cyclopentyl (prop-2-ylamino)methanoate]	50 to 500 nM	< 50 nM	< 50 nM	≤ 500 nM	50 to 500 nM		≥ 1000 nM	
CC(C)NC(=O)O[C@@H]1CC[C@H](c2cc(Nc3ccc4c(c3)CCCS4(=O)=O)n[nH]2)C1 [Example 26, (1R,3S)-3-(3-((1,1-dioxidothiochroman-6-yl)amino)-1H-pyrazol-5-yl)cyclopentyl isopropylcarbamate]	50 to 500 nM	< 50 nM	< 50 nM	≤ 500 nM	50 to 500 nM		≥ 1000 nM	
CC(C)NC(=O)O[C@H]1CC[C@@H](c2cc(Nc3ccc4c(c3)S(=O)(=O)CC4)n[nH]2)CC1 [Example 27, (1s,4s)-4-{5-[(1,1-dioxo-2,3-dihydro-1λ^6-benzo[b]thiophen-6-yl)amino]-2H-pyrazol-3-yl}cyclohexyl (prop-2-ylamino)methanoate]	50 to 500 nM	< 50 nM	< 50 nM	≥ 1000 nM	> 1000 nM		≥ 1000 nM	
CC(C)NC(=O)O[C@H]1C[C@@H](c2cc(Nc3ccc4c(c3)CS(=O)(=O)C4)n[nH]2)C1 [Example 28, (1s,3s)-3-(3-((2,2-dioxido-1,3-dihydrobenzo[c]thiophen-5-yl)amino)-1H-pyrazol-5-yl)cyclobutyl isopropylcarbamate]	< 50 nM	< 50 nM	< 50 nM	≤ 500 nM	50 to 500 nM		≤ 500 nM	
